# Columns and labels:
# [1] = system: collagenase; assay: Measurement of collagenase expression inhibitory activity in human fibroblasts; assay type: cell-based; details: human fibroblasts treated at 10^−4 mole for 24 hours; untreated control group set as 100
# Procedure: The collagenase expression inhibitory activity of the extracts of natural materials, prepared in Comparative Examples 1 and 2, and the salt-fermented extracts of natural materials, prepared in Examples 1 to 7, were measured comparatively with those of tocopherol and EGCG. […] Tocopherol and EGCG, which are antioxidant substances, are known to prevent skin aging by regenerating the epidermal cells of the skin.
# In the test, human fibroblasts were seeded into a 96-well microtiter plate containing DMEM (Dulbecco's Modified Eagle's Media) medium containing 2.5% fetal bovine serum to a density of 5,000 cells/well and were cultured to a confluence of about 90%. […]
# The collected cell culture broths were measured for collagenase production using a commercially available collagenase measurement device (Amersham Phamasia, USA). […]
# The absorbance of the 96-well plate having a yellow color was measured at 405 nm using an absorbance spectrometer, and the degree of synthesis of collagenase was calculated according to the following Equation 1. Herein, the absorbance of the cell culture broth collected from the group not treated with the composition was used as a control. That is, the expression of collagenase in the control group was set as 100, and the expression of collagenase in the group treated with the composition was calculated relative to the control group.
# [2] = system: procollagen; assay: Test of the effect of promoting procollagen production in human fibroblasts; assay type: cell-based; details: human fibroblasts treated at 10^−4 mole for 24 hours; procollagen type-1 C-peptide EIA; untreated control group set as 100
# Procedure: Procollagen is a collagen production-inducing substance necessary for collagen production and aging prevention, and if the degree of production of procollagen is high, the degree of production of collagen is also high, and thus the production of skin wrinkles can be prevented. Also, vitamin C is known as a component essential for the synthesis of collagen. […] The cell culture broths were then collected. After 24 hours, the amount of released procollagen in the medium was measured with a procollagen type-1 C-peptide EIA kit (MK101, Takara, Japan). Based on the measurement results, the production of procollagen was calculated according to the following Equation 2. Herein, the production of procollagen collected from the group not treated with the composition was used as a control group. […] [formula]
Molecule,Collagenase expression (%) [1] [%],Procollagen production (%) [2] [%]
O=C(O[C@@H]1Cc2c(O)cc(O)cc2O[C@@H]1c1cc(O)c(O)c(O)c1)c1cc(O)c(O)c(O)c1 [EGCG],60,
"O=C1O[C@H]([C@@H](O)CO)C(O)=C1O [Vitamin C, vitamin C]",,120
tocopherol,75,

# Reference: patent publication US8268366B2, “Cosmetic composition containing salt-fermented extract of natural materials” (Amorepacific Corporation, priority 2008, dated 2012)
